pIC50, pKd: −log10 of the molar value. Activity calls are given as the source filed them. The rule behind the calls is not given here.
Columns and labels:
Pseudomonas aeruginosa [1] = assay: Antimicrobial activity against Pseudomonas aeruginosa ATCC 9027 assessed as inhibition zone; type: functional; details: time 64 hrs
Salmonella typhimurium = assay: Antimicrobial activity against Salmonella typhimurium ATCC 14028 assessed as inhibition of microbial growth incubated for 64 hrs by broth-microdilution assay; type: functional, Salmonella enterica subsp. enterica serovar Typhimurium; details: Salmonella enterica
Klebsiella pneumoniae [2] = assay: Antimicrobial activity against Klebsiella pneumoniae ATCC 13883 assessed as inhibition zone; type: functional
Pseudomonas aeruginosa [3] = assay: Antimicrobial activity against Pseudomonas aeruginosa ATCC 9027 assessed as inhibition of microbial growth incubated for 64 hrs by broth-microdilution assay; type: functional
Klebsiella pneumoniae [4] = assay: Antimicrobial activity against Klebsiella pneumoniae ATCC 13883 assessed as inhibition of microbial growth incubated for 64 hrs by broth-microdilution assay; type: functional
Escherichia coli = assay: Antimicrobial activity against Escherichia coli ATCC 8739 assessed as inhibition of microbial growth incubated for 64 hrs by broth-microdilution assay; type: functional
[5] = Binding affinity to PD-L1 (unknown origin) assessed as dissociation constant by SPR analysis; parameters: species or system Homo sapiens
A549 = assay: Cytotoxicity against human A549 cells incubated for 24 hrs by CCK-8 assay; type: functional, cell-based; details: A549, 24 h
Klebsiella pneumoniae [6] = assay: Induction of intracellular ROS accumulation in Klebsiella pneumoniae ATCC 13883 incubated for 12 hrs by fluorescence microscopic analysis; type: functional, organism-based
[7] = biological target: Programmed cell death protein 1/Programmed cell death 1 ligand 1 (Homo sapiens, UniProt Q9NZQ7); assay: Inhibition of PD-1/PD-L1 (unknown origin) protein-protein interaction preincubated for 15 mins followed by PD-1-Eu addition and measured after 90 mins by TR-FRET assay; type: protein-complex assay
[8] = biological target: Programmed cell death 1 ligand 1 (Homo sapiens) (UniProt Q9NZQ7); assay: Binding affinity to PD-L1 (unknown origin) assessed as Change in enthalpy by ITC analysis
[9] = biological target: Programmed cell death 1 ligand 1 (Homo sapiens) (UniProt Q9NZQ7); assay: Binding affinity to PD-L1 (unknown origin) assessed as association constant at equilibrium by ITC analysis
[10] = biological target: T1, UDP-3-O-acyl-N-acetylglucosamine deacetylase (Escherichia coli K-12, UniProt P0A725); assay: Binding affinity to Escherichia coli LpxC assessed as dissociation constant by SPR analysis
T1 sequence (P0A725 whole entry): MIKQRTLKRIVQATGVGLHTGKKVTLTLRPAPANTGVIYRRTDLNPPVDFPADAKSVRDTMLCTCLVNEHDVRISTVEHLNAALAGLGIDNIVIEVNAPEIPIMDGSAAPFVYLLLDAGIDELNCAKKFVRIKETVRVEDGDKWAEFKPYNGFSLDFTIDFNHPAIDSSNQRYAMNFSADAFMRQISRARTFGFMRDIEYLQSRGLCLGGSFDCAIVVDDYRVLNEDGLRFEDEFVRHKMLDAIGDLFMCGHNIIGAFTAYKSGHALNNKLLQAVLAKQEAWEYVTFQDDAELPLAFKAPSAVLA

Klebsiella pneumoniae [11] = assay: Antimicrobial activity against Klebsiella pneumoniae ATCC 13883 assessed as increase in percentage of bacterial cells by flow cytometry analysis; type: functional, organism-based
[12] = biological target: T1, UDP-3-O-acyl-N-acetylglucosamine deacetylase; assay: Inhibition of Escherichia coli LpxC
HeLa = assay: Cytotoxicity against human HeLa cells incubated for 24 hrs by CCK-8 assay; type: functional, cell-based
[13] = Clearance in rat at 2 mg/kg, iv measured upto 24 hrs by LC-MS/MS analysis; type: ADME, organism-based; details: in vivo
Klebsiella pneumoniae [14] = assay: Antibacterial activity against Klebsiella pneumoniae ATCC 13883 infected in Kunming mouse model assessed as reduction in alveolar space in lung at 2 mg/kg, iv by H and E staining based analysis; type: functional, organism-based
[15] = AUC (0 to t) in rat at 2 mg/kg, iv measured upto 24 hrs by LC-MS/MS analysis; type: ADME, organism-based; details: in vivo
[16] = Volume of distribution at steady state in rat at 2 mg/kg, iv measured upto 24 hrs by LC-MS/MS analysis; type: ADME, organism-based; details: in vivo, iv, 2 mg/kg, 24 h
[17] = Initial plasma concentration in rat at 2 mg/kg, iv measured upto 24 hrs by LC-MS/MS analysis; type: ADME, organism-based; details: in vivo, iv, 2 mg/kg, 24 h
Klebsiella pneumoniae [18] = assay: Antibacterial activity against Klebsiella pneumoniae ATCC 13883 infected in Kunming mouse model assessed as reduction in bacterial proliferation at 2 mg/kg, iv in presence of biphenyl isopropyl ester; type: functional, organism-based
Klebsiella pneumoniae [19] = assay: Bactericidal activity against Klebsiella pneumoniae ATCC 13883 assessed as reduction in survival rate by colony counting method; type: functional
[20] = Half life in rat at 2 mg/kg, iv measured upto 24 hrs by LC-MS/MS analysis; type: ADME, organism-based; details: in vivo
Klebsiella pneumoniae [21] = assay: Antibacterial activity against Klebsiella pneumoniae ATCC 13883 infected in Kunming mouse model assessed as reduction in alveolar space in lung at 2 mg/kg, iv in presence of biphenyl isopropyl ester by H and E staining based analysis; type: functional, organism-based

Programmed cell death 1 ligand 1 (Homo sapiens), sequence (Q9NZQ7 whole entry): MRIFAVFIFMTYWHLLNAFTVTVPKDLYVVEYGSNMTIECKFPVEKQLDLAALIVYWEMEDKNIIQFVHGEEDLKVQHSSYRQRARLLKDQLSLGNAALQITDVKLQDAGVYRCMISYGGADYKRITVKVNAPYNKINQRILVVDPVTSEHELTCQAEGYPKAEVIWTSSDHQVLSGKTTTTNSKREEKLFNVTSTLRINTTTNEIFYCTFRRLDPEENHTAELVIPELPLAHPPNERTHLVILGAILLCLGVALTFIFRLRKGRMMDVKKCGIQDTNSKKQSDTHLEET
Programmed cell death protein 1/Programmed cell death 1 ligand 1, sequence (Q15116 whole entry): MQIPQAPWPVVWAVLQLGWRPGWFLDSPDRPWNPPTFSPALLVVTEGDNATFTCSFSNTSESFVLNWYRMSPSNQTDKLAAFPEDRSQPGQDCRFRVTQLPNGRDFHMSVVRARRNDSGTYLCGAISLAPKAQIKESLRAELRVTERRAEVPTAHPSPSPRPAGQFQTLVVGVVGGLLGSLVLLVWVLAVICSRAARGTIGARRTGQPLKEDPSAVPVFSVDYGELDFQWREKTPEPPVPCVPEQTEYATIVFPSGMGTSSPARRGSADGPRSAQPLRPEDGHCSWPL
Programmed cell death protein 1/Programmed cell death 1 ligand 1, sequence (Q9NZQ7 whole entry): as the sequence (Q9NZQ7 whole entry) above

| Structure (SMILES) | inhibition zone (IZ) (Pseudomonas aeruginosa [1]) | MIC50 (Salmonella typhimurium) [µg/mL] | inhibition zone (IZ) (Klebsiella pneumoniae [2]) | MIC50 (Pseudomonas aeruginosa [3]) [µg/mL] | MIC50 (Klebsiella pneumoniae [4]) [µg/mL] | MIC50 (Escherichia coli) [µg/mL] | other results |
| --- | --- | --- | --- | --- | --- | --- | --- |
| COc1cc(OCc2cccc(-c3ccccc3)c2C)cc(OC)c1CNC(CO)C(=O)NO (configuration not stated) | 8.1 mm | 4 | <=6 mm | 4 | 8 | ≥ 16 |  |
| COc1cc(OCc2cccc(-c3ccccc3)c2C)cc(OC)c1CNC(C(=O)NO)C(C)C (configuration not stated) | 6.3 mm | ≥ 16 | <=6 mm | 8 | ≥ 16 | 4 |  |
| Cc1c(CN2CCC(C(=O)NC(C(=O)NO)C(C)O)CC2)cccc1-c1ccccc1 (configuration not stated) | 14.1 mm | 1 | 15.8 mm | 1 | 0.5 | 2 |  |
| Cc1c(COc2cccc(CNC(C(=O)NO)C(C)C)c2)cccc1-c1ccccc1 (configuration not stated) | 6.6 mm | 4 | 8.6 mm | ≥ 16 | 4 | 8 |  |
| Cc1c(CN2CCC(C(=O)N3CCCC3C(=O)NO)CC2)cccc1-c1ccccc1 (configuration not stated) | 12.6 mm | 2 | 14.4 mm | 1 | 0.5 | 1 | pKd [5]: 9.87; pIC50 (A549): < 4.30; Activity (Klebsiella pneumoniae [6]): Active; pIC50 [7]: 6.50; deltaH [8]: 0.735 kcal/mol; Ka [9]: 4.59 10^5/M; pKd [10]: 9.06; Activity (Klebsiella pneumoniae [11]): Active; pIC50 [12]: 5.37; pIC50 (HeLa): < 4.30 |
| Cc1c(CN2CCC(C(=O)NC(CO)C(=O)NO)CC2)cccc1-c1ccccc1 (configuration not stated) | 10.1 mm | 8 | 11.6 mm | 4 | 2 | ≥ 16 |  |
| Cc1c(COc2cccc(CN3CCCC3C(=O)NO)c2)cccc1-c1ccccc1 (configuration not stated) | <=6 mm | 4 | 7.2 mm | 4 | ≥ 16 | ≥ 16 |  |
| COc1cc(OCc2cccc(-c3ccccc3)c2C)cc(OC)c1CNC(C(=O)NO)C(C)O (configuration not stated) | 8.9 mm | 4 | 9.4 mm | 1 | 1 | 2 |  |
| C[C@H](O)[C@H](NC(=O)c1ccc(C#Cc2ccc(CN3CCOCC3)cc2)cc1)C(=O)NO | 13.5 mm | 0.5 | 14.2 mm | 1 | 0.5 | 2 | clearance [13]: 75.6 mL/min/kg; Activity (Klebsiella pneumoniae [14]): Active; AUC(0-t) at 24 h [15]: 289 ng·h/mL; Vdss [16]: 1.42 L/kg; C0 [17]: 332 ng/mL; Activity (Klebsiella pneumoniae [18]): Active; Activity (Klebsiella pneumoniae [19]): 83%; half-life [20]: 32.4 min; Activity (Klebsiella pneumoniae [6]): Active; Activity (Klebsiella pneumoniae [11]): Active |
| CCn1cc(C(=O)O)c(=O)c2cc(F)c(N3CCNCC3)cc21 [NORFLOXACIN] | 14.8 mm | 2 | 15.9 mm | 1 | 1 | 0.5 |  |
| COc1cc(OCc2cccc(-c3ccccc3)c2C)cc(OC)c1CN1CCCC1C(=O)NO (configuration not stated) | 9.1 mm | ≥ 16 | 11.3 mm | 1 | 1 | 2 |  |
| Cc1c(COc2cccc(CNC(CO)C(=O)NO)c2)cccc1-c1ccccc1 (configuration not stated) | 13.8 mm | 1 | 15.2 mm | 0.5 | 0.5 | 0.5 | pKd [5]: 9.87; pIC50 (A549): < 4.30; Activity (Klebsiella pneumoniae [6]): Active; pIC50 [7]: 6.96; deltaH [8]: 0.995 kcal/mol; Ka [9]: 4.17 10^5/M; pKd [10]: 9.06; Activity (Klebsiella pneumoniae [11]): Active; pIC50 [12]: 5.08; pIC50 (HeLa): < 4.30 |
| Cc1c(CN2CCC(C(=O)NC(C(=O)NO)C(C)C)CC2)cccc1-c1ccccc1 (configuration not stated) | <=6 mm | 4 | 9.5 mm | 8 | 4 | 2 |  |
| CC(C)OC(=O)[C@@H](CO)NCc1cc(Cl)c(OCc2cccc(-c3ccccc3)c2Br)cc1OCc1cccnc1 |  |  |  |  |  |  | pKd [5]: 9.60; Activity (Klebsiella pneumoniae [21]): Active; deltaH [8]: 1.13 kcal/mol; pKd [10]: 9.40 |

Reference: ChEMBL document CHEMBL6153126, “Design, Synthesis, and Activity Evaluation of Novel Bifenamide Dual-Target Antibacterial Inhibitors and Carrier Based on Infectious Microenvironment” (J Med Chem, 2025)
